≈ marks a conversion by molar mass, not a printed value.
Tested on: Mycobacterium tuberculosis
Assay: Antimicrobial activity against Bacille Calmette-Guerin
Type: functional
Conditions: variant bovis BCG

Compound	MIC
CC(C)=C[C@H]1C[C@H](C)[C@]2(CC[C@]3(C)C[C@@H]4C(C)=CC(=O)[C@H]4/C(C=O)=C\C[C@H]32)O1 [3-ANHYDRO-6-EPI-OPHIOBOLIN A]	> 100 µg/mL
NNC(=O)c1ccncc1 [ISONIAZID]	0.05 µg/mL (≈ 0.365 µM)
CC(C)=C[C@H]1C[C@H](C)[C@]2(CC[C@]3(C)C[C@@H]4C(C)=CC(=O)[C@]4(O)/C(C=O)=C\C[C@H]32)O1	12.5 µg/mL (≈ 31.4 µM)
CC(C)=C[C@H]1C[C@H](C)[C@]2(CC[C@]3(C)C[C@@H]4C(C)=CC(=O)[C@@H]4/C(C=O)=C\C[C@H]32)O1	> 100 µg/mL
